Laboratory results as given in patent US11505543B2, “4-oxo-3,4-dihydroquinazoline compounds as inhibitors of human immunodeficiency virus replication” (VIIV HEALTHCARE UK (NO.5) LIMITED, priority 2018, dated 2022).

Legend:
[1] = tested on: recombinant NL4-3 virus (nef section replaced with Renilla luciferase gene) in MT-2 cells; assay: HIV cell culture assay (antiviral activity, luciferase readout); type: cell-based; conditions: Renilla, NL43, MT-2 cells infected for 4-5 days with recombinant NL4-3 Renilla luciferase virus, serial dilutions of compound
Description: HIV cell culture assay—MT-2 cells, 293T cells and the proviral DNA clone of NL4-3 virus were obtained from the NIH AIDS Research and Reference Reagent Program. MT-2 cells were propagated in RPMI 1640 media supplemented with 10% heat inactivated fetal bovine serum (FBS), 100 μg/ml penicillin G and up to 100 units/mL streptomycin. The 293T cells were propagated in DMEM media supplemented with 10% heat inactivated FBS, 100 μg/mL penicillin G and 100 μg/mL streptomycin. A recombinant NL4-3 proviral clone, in which a section of the nef gene was replaced with the Renilla luciferase gene, was used to make the reference virus used in these studies. The recombinant virus was prepared through transfection of the recombinant NL4-3 proviral clone into 293T cells using Transit-293 Transfection Reagent from Mirus Bio LLC (Madison, Wis.). Supernatent was harvested after 2-3 days and the amount of virus present was titered in MT-2 cells using luciferase enzyme activity as a marker by measuring luciferase enzyme activity. Luciferase was quantitated using the EnduRen Live Cell Substrate from Promega (Madison, Wis.). Antiviral activities of compounds toward the recombinant virus were quantified by measuring luciferase activity in MT-2 cells infected for 4-5 days with the recombinant virus in the presence of serial dilutions of the compound.
The 50% effective concentration (EC50) was calculated by using the exponential form of the median effect equation where (Fa)=1/[1+(ED50/drug conc.)^m] (Johnson VA, Byington RT. Infectivity Assay. In Techniques in HIV Research. ed. Aldovini A, Walker BD. 71-76. New York: Stockton Press. 1990). Curve fitting and analysis were performed with ActivityBase XE Runner software version 9.1.0.4 using model 203 (ID Business Solutions, LTD, Guildford, UK).

[2] = Compound cytotoxicity, XTT-based colorimetric assay; type: cell-based; conditions: human, uninfected MT2 cells, day 4, XTT
Description: Compound cytotoxicity and the corresponding CC50 values were determined using the same protocol as described in the antiviral assay except that uninfected cells were used. Cytotoxicity was assessed on day 4 in uninfected MT2 cells by using a XTT (2,3-bis[2-Methoxy-4-nitro-5-sulfophenyl]-2H-tetrazolium-5-carboxyanilide inner salt)-based colorimetric assay (Sigma-Aldrich, St Louis, Mo.).

Structure (SMILES) | EC50 [1] | CC50 at 4 day [2]
Cc1cc(-c2ccc3c(=O)n(-c4ccc(Cl)c5c(NS(C)(=O)=O)nn(C)c45)c([C@H](Cc4cc(F)cc(F)c4)NC(=O)Cn4nc(C(F)F)c5c4C(F)(F)[C@@H]4C[C@H]54)nc3c2)ccc1Cl (atropisomer, axis not shown; (aR)) [Example 31, N-((S)-1-(3-(4-chloro-1-methyl-3-(methylsulfonamido)-1H-indazol-7-yl)-7-(4-chloro-3-methylphenyl)-4-oxo-3,4-dihydroquinazolin-2-yl)-2-(3,5-difluorophenyl)ethyl)-2-((3bS,4aR)-3-(difluoromethyl)-5,5-difluoro-3b,4,4a,5-tetrahydro-1H-cyclopropa[3,4]cyclopenta[1,2-c]pyrazol-1-yl)acetamide] | 4.7 nM | > 1000 nM
Cn1nc(NS(C)(=O)=O)c2c(Cl)ccc(-n3c([C@H](Cc4cc(F)cc(F)c4)NC(=O)Cn4nc(C(F)F)c5c4C(F)(F)[C@@H]4C[C@H]54)nc4cc(-c5ccc(C(=O)N6CCCCC6)cc5)ccc4c3=O)c21 (atropisomer, axis not shown; (aR)) [Example 34, N-((S)-1-(3-(4-chloro-1-methyl-3-(methylsulfonamido)-1H-indazol-7-yl)-4-oxo-7-(4-(piperidine-1-carbonyl)phenyl)-3,4-dihydroquinazolin-2-yl)-2-(3,5-difluorophenyl)ethyl)-2-((3bS,4aR)-3-(difluoromethyl)-5,5-difluoro-3b,4,4a,5-tetrahydro-1H-cyclopropa[3,4]cyclopenta[1,2-c]pyrazol-1-yl)acetamide] | 0.46 nM | > 1000 nM
Cn1nc(NS(C)(=O)=O)c2c(Cl)ccc(-n3c([C@H](Cc4cc(F)cc(F)c4)NC(=O)Cn4nc(C(F)F)c5c4C(F)(F)[C@@H]4C[C@H]54)nc4cc(-c5ccc(F)c(C(=O)O)c5)ccc4c3=O)c21 (atropisomer, axis not shown; (aR)) [Example 38, 5-(3-(4-chloro-1-methyl-3-(methylsulfonamido)-1H-indazol-7-yl)-2-((S)-1-(2-((3bS,4aR)-3-(difluoromethyl)-5,5-difluoro-3b,4,4a,5-tetrahydro-1H-cyclopropa[3,4]cyclopenta[1,2-c]pyrazol-1-yl)acetamido)-2-(3,5-difluorophenyl)ethyl)-4-oxo-3,4-dihydroquinazolin-7-yl)-2-fluorobenzoic acid] | 10 nM | > 1000 nM
Cn1nc(NS(C)(=O)=O)c2c(Cl)ccc(-n3c([C@H](Cc4cc(F)cc(F)c4)NC(=O)Cn4nc(C(F)F)c5c4C(F)(F)[C@@H]4C[C@H]54)nc4cc(-c5cnccn5)ccc4c3=O)c21 (atropisomer, axis not shown; (aR)) [Example 39, N-((S)-1-(3-(4-chloro-1-methyl-3-(methylsulfonamido)-1H-indazol-7-yl)-4-oxo-7-(pyrazin-2-yl)-3,4-dihydroquinazolin-2-yl)-2-(3,5-difluorophenyl)ethyl)-2-((3bS,4aR)-3-(difluoromethyl)-5,5-difluoro-3b,4,4a,5-tetrahydro-1H-cyclopropa[3,4]cyclopenta[1,2-c]pyrazol-1-yl)acetamide] | 0.052 nM | > 1000 nM
Cn1nc(NS(C)(=O)=O)c2c(Cl)ccc(-n3c([C@H](Cc4cc(F)cc(F)c4)NC(=O)Cn4nc(C(F)F)c5c4C(F)(F)[C@@H]4C[C@H]54)nc4cc(-c5ncccn5)ccc4c3=O)c21 (atropisomer, axis not shown; (aR)) [Example 40, N-((S)-1-(3-(4-chloro-1-methyl-3-(methylsulfonamido)-1H-indazol-7-yl)-4-oxo-7-(pyrimidin-2-yl)-3,4-dihydroquinazolin-2-yl)-2-(3,5-difluorophenyl)ethyl)-2-((3bS,4aR)-3-(difluoromethyl)-5,5-difluoro-3b,4,4a,5-tetrahydro-1H-cyclopropa[3,4]cyclopenta[1,2-c]pyrazol-1-yl)acetamide] | 0.025 nM | > 1000 nM
CC(C)c1cccc(-c2ccc3c(=O)n(-c4ccc(Cl)c5c(NS(C)(=O)=O)nn(C)c45)c([C@H](Cc4cc(F)cc(F)c4)NC(=O)Cn4nc(C(F)F)c5c4C(F)(F)[C@@H]4C[C@H]54)nc3c2)c1 (atropisomer, axis not shown; (aR)) [Example 41, N-((S)-1-(3-(4-chloro-1-methyl-3-(methylsulfonamido)-1H-indazol-7-yl)-7-(3-isopropylphenyl)-4-oxo-3,4-dihydroquinazolin-2-yl)-2-(3,5-difluorophenyl)ethyl)-2-((3bS,4aR)-3-(difluoromethyl)-5,5-difluoro-3b,4,4a,5-tetrahydro-1H-cyclopropa[3,4]cyclopenta[1,2-c]pyrazol-1-yl)acetamide] | 4.5 nM | > 1000 nM
Cn1nc(NS(C)(=O)=O)c2c(Cl)ccc(-n3c([C@H](Cc4cc(F)cc(F)c4)NC(=O)Cn4nc(C(F)F)c5c4C(F)(F)[C@@H]4C[C@H]54)nc4cc(-c5ccccc5Cl)ccc4c3=O)c21 (atropisomer, axis not shown; (aR)) [Example 43, N-((S)-1-(3-(4-chloro-1-methyl-3-(methylsulfonamido)-1H-indazol-7-yl)-7-(2-chlorophenyl)-4-oxo-3,4-dihydroquinazolin-2-yl)-2-(3,5-difluorophenyl)ethyl)-2-((3bS,4aR)-3-(difluoromethyl)-5,5-difluoro-3b,4,4a,5-tetrahydro-1H-cyclopropa[3,4]cyclopenta[1,2-c]pyrazol-1-yl)acetamide] | 0.69 nM | > 1000 nM
Cn1nc(NS(C)(=O)=O)c2c(Cl)ccc(-n3c([C@H](Cc4cc(F)cc(F)c4)NC(=O)Cn4nc(C(F)F)c5c4C(F)(F)[C@@H]4C[C@H]54)nc4cc(-c5cccc(F)c5CO)ccc4c3=O)c21 (atropisomer, axis not shown; (aR)) [Example 44, N-((S)-1-(3-(4-chloro-1-methyl-3-(methylsulfonamido)-1H-indazol-7-yl)-7-(3-fluoro-2-(hydroxymethyl)phenyl)-4-oxo-3,4-dihydroquinazolin-2-yl)-2-(3,5-difluorophenyl)ethyl)-2-((3bS,4aR)-3-(difluoromethyl)-5,5-difluoro-3b,4,4a,5-tetrahydro-1H-cyclopropa[3,4]cyclopenta[1,2-c]pyrazol-1-yl)acetamide] | 0.12 nM | > 1000 nM
Cn1nc(NS(C)(=O)=O)c2c(Cl)ccc(-n3c([C@H](Cc4cc(F)cc(F)c4)NC(=O)Cn4nc(C(F)F)c5c4C(F)(F)[C@@H]4C[C@H]54)nc4cc(-c5cccc(C(C)(C)C)c5)ccc4c3=O)c21 (atropisomer, axis not shown; (aR)) [Example 45, N-((S)-1-(7-(3-(tert-butyl)phenyl)-3-(4-chloro-1-methyl-3-(methylsulfonamido)-1H-indazol-7-yl)-4-oxo-3,4-dihydroquinazolin-2-yl)-2-(3,5-difluorophenyl)ethyl)-2-((3bS,4aR)-3-(difluoromethyl)-5,5-difluoro-3b,4,4a,5-tetrahydro-1H-cyclopropa[3,4]cyclopenta[1,2-c]pyrazol-1-yl)acetamide] | 4.5 nM | > 1000 nM
COc1cccc(-c2ccc3c(=O)n(-c4ccc(Cl)c5c(NS(C)(=O)=O)nn(C)c45)c([C@H](Cc4cc(F)cc(F)c4)NC(=O)Cn4nc(C(F)F)c5c4C(F)(F)[C@@H]4C[C@H]54)nc3c2)n1 (atropisomer, axis not shown; (aR)) [Example 46, N-((S)-1-(3-(4-chloro-1-methyl-3-(methylsulfonamido)-1H-indazol-7-yl)-7-(6-methoxypyridin-2-yl)-4-oxo-3,4-dihydroquinazolin-2-yl)-2-(3,5-difluorophenyl)ethyl)-2-((3bS,4aR)-3-(difluoromethyl)-5,5-difluoro-3b,4,4a,5-tetrahydro-1H-cyclopropa[3,4]cyclopenta[1,2-c]pyrazol-1-yl)acetamide] | 0.56 nM | > 1000 nM
Cn1nc(NS(C)(=O)=O)c2c(Cl)ccc(-n3c([C@H](Cc4cc(F)cc(F)c4)NC(=O)Cn4nc(C(F)F)c5c4C(F)(F)[C@@H]4C[C@H]54)nc4cc(-c5ccc(Cl)cc5)ccc4c3=O)c21 (atropisomer, axis not shown; (aR)) [Example 51, N-((S)-1-(3-(4-chloro-1-methyl-3-(methylsulfonamido)-1H-indazol-7-yl)-7-(4-chlorophenyl)-4-oxo-3,4-dihydroquinazolin-2-yl)-2-(3,5-difluorophenyl)ethyl)-2-((3bS,4aR)-3-(difluoromethyl)-5,5-difluoro-3b,4,4a,5-tetrahydro-1H-cyclopropa[3,4]cyclopenta[1,2-c]pyrazol-1-yl)acetamide] | 3.3 nM | > 1000 nM
